Data: publication PMC6310865 (Proceedings of the National Academy of Sciences of the …, 2018)
Like-named read-outs stand apart in the source and are kept apart here. Ends that are not written are not given here.

Key:
CD4+ T cells = assay type: cell-based, human
[1] = target: DQ0602 (HLA DQB1*06:02/DQA1*01:02 heterodimer) (Homo sapiens, UniProt P01909+P01920, A157G/A45G/C70R/E118A/E183D/E77G/F83G/G63E/H151Q/H199R/H252R/H253Q/I129T/I235V/I88M/INS77G/K197Q/L117V/L119F/L178F/L71W/L74F/L85Q/L91A/L98M/N214S/P87R/Q116E/Q76K/R102G/R240Q/R75S/R78G/S102Y/S185I/S41F/S97I/T121G/T122I/T172A/T86R/V229M/V68A/V73E/Y34C/Y41F/Y58L); assay type: binding; conditions: in words; Dataset S1
[2] = 13 post-Pandemrix cases versus 10 post-Pandemrix controls

Substance	Tetramer reactivity (frequency of specific CD4+ T cells) in primary screening (CD4+ T cells)	Tetramer-positive CD4+ T cells in T1N cases versus DQ0602 controls (CD4+ T cells; [2])	Tetramer-positive CD4+ T cells in T1N cases versus DQ0602 controls (CD4+ T cells; all cases versus controls, […])	DQ0602 binding affinity of amidated versus nonamidated HCRT peptide [1]	Tetramer-positive CD4+ T cells in T1N cases versus DQ0602 controls (CD4+ T cells; 7 recent onset cases versus 21 controls)
NP17–31: nucleoprotein epitope, PR8 specific (GERQNATEIRASVGK)	highest frequencies				
NP261–275: nucleoprotein epitope shared between A/California/07/2009 and PR8 (RSALILRGSVAHKSC; UniProt P03466 261-275, looked up, fragment)	highest frequencies				
HCRT86–97-NH2: C-terminal amidated HCRT86–97, as in secreted, mature hypocretin-2 (ASGNHAAGILTM-NH2; UniProt O43612 86-97, looked up, fragment)		significantly higher reactivity	marginally higher values	higher affinity	
HCRT54–66-NH2: C-terminal amidated HCRT54–66, as in secreted, mature hypocretin-1 (HGAGNHAAGILTL-NH2)		marginally higher values	significantly higher percentage	higher affinity	higher reactivity
